In patent US20210353631A1, “1,4-Benzoxazines for the Treatment of Cancers and Other Neurodegenerative Diseases” (Neugeneron LLC, priority 2020, published 2021):

Tests used:
[1] = target: T1, DAPK3 (Homo sapiens, UniProt O43293); experiment: KINOMEscan kinome profiling (DiscoveRx/Eurofin platform); assay type: binding; details: read-out: % control
T1 construct: purchased DiscoveRx/Eurofin

[2] = target: T2, CSNK1A1L (Homo sapiens, UniProt Q8N752); experiment: as above; assay type: binding; details: read-out: % control
T2 construct: purchased DiscoveRx/Eurofin

[3] = target: T3, CSF1R -autoinhibited (Homo sapiens, UniProt P07333); experiment: as above; assay type: binding; details: read-out: % control
T3 construct: purchased DiscoveRx/Eurofin

[4] = target: T4, CSNK1G3 (Homo sapiens, UniProt Q9Y6M4); experiment: as above; assay type: binding; details: read-out: % control
T4 construct: purchased DiscoveRx/Eurofin

[5] = target: T5, DMPK (Homo sapiens, UniProt Q09013); experiment: as above; assay type: binding; details: read-out: % control
T5 construct: purchased DiscoveRx/Eurofin

[6] = target: T6, CSNK1G1 (Homo sapiens, UniProt Q9HCP0); experiment: as above; assay type: binding; details: read-out: % control
T6 construct: purchased DiscoveRx/Eurofin

[7] = target: T7, CLK2 (Homo sapiens, UniProt P49760); experiment: as above; assay type: binding; details: read-out: % control
T7 construct: purchased DiscoveRx/Eurofin

[8] = target: T8, DCAMKL1 (DCLK1) (Homo sapiens, UniProt O15075); experiment: as above; assay type: binding; details: KINOMEscan DCAMKL1 (Entrez DCLK1), read-out: % control
T8 construct: purchased DiscoveRx/Eurofin

[9] = test system: cerebellar granule neurons (CGNs); experiment: Neuroprotection in cerebellar granule neurons switched from HK to LK medium; assay type: cell-based; details: 1, 5 and 25 uM, viability 24 h later, single experiment in duplicate
Experimental: (§1) FIGS. 1A to 1C, show: (FIG. 1A) Chemical structure of NGN-006. (FIG. 1B) Neuroprotection in cerebellar granule neurons (CGNs) induced to die by switching from high potassium (HK) to low potassium (LK) medium. HSB-13 and NGN-006 were added to LK-treated CGNs at 1, 5 and 25 uM concentrations. Viability was measured 24 h later and compared with control survival in HK). Results are means values from a single experiment performed in duplicate. […] (FIG. 1C) Neuroprotection in cortical neurons (CGNs) induced to die by treatment with homocysteic acid (HCA) which induces oxidative stress. Neurons were treated either with HCA alone or HCA with 25 uM HSB-13 or 5 uM and 25 uM NGN-006 for 18 h. Viability was measured 24 h later and compared with survival of control (untreated cells, Unt). Results are mean values from a single experiment performed in duplicate.
(§2) Based on the structure of HSB-13 addition compounds have been synthesized. Among these derivatives was NGN-006 (FIG. 1A). […] Viability was measured 24 h later and compared with control survival in HK). […] Viability was measured 24 h later and compared with survival of control (untreated cells, Unt). […]

[10] = target: CDKs; experiment: Kinome profiling of NGN-006; assay type: binding; details: kinases that HSB-13 inhibits
[11] = target: p38 MAPK; experiment: Kinome profiling of NGN-006; assay type: binding; details: kinase that HSB-13 inhibits
[12] = test system: cortical neurons; experiment: Neuroprotection in cortical neurons treated with homocysteic acid (HCA); assay type: cell-based; details: cortical neurons treated with HCA (oxidative stress); 5 uM and 25 uM for 18 h; single experiment in duplicate
Experimental: as §1, §2

[13] = target: other members of the DAPK family; experiment: Kinome profiling of NGN-006; assay type: binding
[14] = target: T9, DDR2 (Homo sapiens, UniProt Q16832); experiment: KINOMEscan kinome profiling (DiscoveRx/Eurofin platform); assay type: binding; details: read-out: % control
T9 construct: purchased DiscoveRx/Eurofin

[15] = target: T10, DCAMKL2 (DCLK2) (Homo sapiens, UniProt Q8N568); experiment: as above; assay type: binding; details: KINOMEscan DCAMKL2 (Entrez DCLK2), read-out: % control
T10 construct: purchased DiscoveRx/Eurofin

[16] = target: T11, CLK3 (Homo sapiens, UniProt P49761); experiment: as above; assay type: binding; details: read-out: % control
T11 construct: purchased DiscoveRx/Eurofin

[17] = target: T12, EGFR(L747-E749del, A750P) (Homo sapiens, UniProt P00533, A750P/DEL747-749); experiment: as above; assay type: binding; details: read-out: % control
T12 construct: purchased DiscoveRx/Eurofin

[18] = target: T13, DDR1 (Homo sapiens, UniProt Q08345); experiment: as above; assay type: binding; details: read-out: % control
T13 construct: purchased DiscoveRx/Eurofin

[19] = target: T14, EGFR(E746-A750del) (Homo sapiens, UniProt P00533, DEL746-750); experiment: as above; assay type: binding; details: read-out: % control
T14 construct: purchased DiscoveRx/Eurofin

[20] = target: T15, EGFR(G719S) (Homo sapiens, UniProt P00533, G719S); experiment: as above; assay type: binding; details: read-out: % control
T15 construct: purchased DiscoveRx/Eurofin

[21] = target: T16, CTK (MATK) (Homo sapiens, UniProt P42679); experiment: as above; assay type: binding; details: KINOMEscan CTK (Entrez MATK), read-out: % control
T16 construct: purchased DiscoveRx/Eurofin

[22] = target: T17, DLK (MAP3K12) (Homo sapiens, UniProt Q12852); experiment: as above; assay type: binding; details: KINOMEscan DLK (Entrez MAP3K12), read-out: % control
T17 construct: purchased DiscoveRx/Eurofin

[23] = target: T18, EGFR (Homo sapiens, UniProt P00533); experiment: as above; assay type: binding; details: read-out: % control
T18 construct: purchased DiscoveRx/Eurofin

[24] = test system: 451 kinases; experiment: Kinome profiling, count of kinases inhibited in the whole panel; assay type: binding; details: substantially defined as over 36% inhibition at 1 uM
[25] = target: T19, CSF1R (Homo sapiens, UniProt P07333); experiment: KINOMEscan kinome profiling (DiscoveRx/Eurofin platform); assay type: binding; details: read-out: % control
T19 construct: purchased DiscoveRx/Eurofin

[26] = target: T20, DAPK2 (Homo sapiens, UniProt Q9UIK4); experiment: as above; assay type: binding; details: read-out: % control
T20 construct: purchased DiscoveRx/Eurofin
T20 sequence (Q9UIK4 whole entry): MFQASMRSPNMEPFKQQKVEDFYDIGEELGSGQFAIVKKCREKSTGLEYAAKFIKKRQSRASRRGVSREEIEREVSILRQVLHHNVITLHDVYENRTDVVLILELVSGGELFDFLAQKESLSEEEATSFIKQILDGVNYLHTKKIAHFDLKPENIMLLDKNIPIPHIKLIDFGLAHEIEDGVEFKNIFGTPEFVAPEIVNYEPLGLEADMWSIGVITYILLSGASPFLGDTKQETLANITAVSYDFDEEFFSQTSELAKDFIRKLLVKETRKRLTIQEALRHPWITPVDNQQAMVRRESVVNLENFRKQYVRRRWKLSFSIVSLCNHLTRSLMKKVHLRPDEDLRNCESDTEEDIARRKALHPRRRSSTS

T17 sequence (Q12852 whole entry): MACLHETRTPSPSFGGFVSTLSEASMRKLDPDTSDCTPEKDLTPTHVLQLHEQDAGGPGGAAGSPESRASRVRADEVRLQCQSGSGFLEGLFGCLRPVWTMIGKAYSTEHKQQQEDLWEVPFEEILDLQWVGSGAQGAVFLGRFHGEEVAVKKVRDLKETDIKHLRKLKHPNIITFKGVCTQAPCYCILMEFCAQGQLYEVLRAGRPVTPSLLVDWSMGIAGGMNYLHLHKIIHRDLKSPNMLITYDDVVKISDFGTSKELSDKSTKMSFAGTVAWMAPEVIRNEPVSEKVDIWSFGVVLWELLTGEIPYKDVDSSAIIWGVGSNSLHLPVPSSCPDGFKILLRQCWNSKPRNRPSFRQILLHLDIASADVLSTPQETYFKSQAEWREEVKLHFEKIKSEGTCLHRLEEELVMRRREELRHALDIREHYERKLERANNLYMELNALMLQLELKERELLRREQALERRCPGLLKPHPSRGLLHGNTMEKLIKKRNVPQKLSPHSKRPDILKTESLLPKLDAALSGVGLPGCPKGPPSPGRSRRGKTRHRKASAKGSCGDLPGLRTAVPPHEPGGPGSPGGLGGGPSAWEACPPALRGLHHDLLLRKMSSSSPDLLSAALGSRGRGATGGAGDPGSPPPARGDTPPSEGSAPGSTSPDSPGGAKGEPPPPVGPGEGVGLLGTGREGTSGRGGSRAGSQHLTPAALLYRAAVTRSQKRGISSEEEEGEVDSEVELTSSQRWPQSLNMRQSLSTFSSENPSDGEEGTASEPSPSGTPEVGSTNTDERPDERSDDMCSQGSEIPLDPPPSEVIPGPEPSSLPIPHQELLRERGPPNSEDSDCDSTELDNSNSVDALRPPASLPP
T18 sequence (P00533 25-1210): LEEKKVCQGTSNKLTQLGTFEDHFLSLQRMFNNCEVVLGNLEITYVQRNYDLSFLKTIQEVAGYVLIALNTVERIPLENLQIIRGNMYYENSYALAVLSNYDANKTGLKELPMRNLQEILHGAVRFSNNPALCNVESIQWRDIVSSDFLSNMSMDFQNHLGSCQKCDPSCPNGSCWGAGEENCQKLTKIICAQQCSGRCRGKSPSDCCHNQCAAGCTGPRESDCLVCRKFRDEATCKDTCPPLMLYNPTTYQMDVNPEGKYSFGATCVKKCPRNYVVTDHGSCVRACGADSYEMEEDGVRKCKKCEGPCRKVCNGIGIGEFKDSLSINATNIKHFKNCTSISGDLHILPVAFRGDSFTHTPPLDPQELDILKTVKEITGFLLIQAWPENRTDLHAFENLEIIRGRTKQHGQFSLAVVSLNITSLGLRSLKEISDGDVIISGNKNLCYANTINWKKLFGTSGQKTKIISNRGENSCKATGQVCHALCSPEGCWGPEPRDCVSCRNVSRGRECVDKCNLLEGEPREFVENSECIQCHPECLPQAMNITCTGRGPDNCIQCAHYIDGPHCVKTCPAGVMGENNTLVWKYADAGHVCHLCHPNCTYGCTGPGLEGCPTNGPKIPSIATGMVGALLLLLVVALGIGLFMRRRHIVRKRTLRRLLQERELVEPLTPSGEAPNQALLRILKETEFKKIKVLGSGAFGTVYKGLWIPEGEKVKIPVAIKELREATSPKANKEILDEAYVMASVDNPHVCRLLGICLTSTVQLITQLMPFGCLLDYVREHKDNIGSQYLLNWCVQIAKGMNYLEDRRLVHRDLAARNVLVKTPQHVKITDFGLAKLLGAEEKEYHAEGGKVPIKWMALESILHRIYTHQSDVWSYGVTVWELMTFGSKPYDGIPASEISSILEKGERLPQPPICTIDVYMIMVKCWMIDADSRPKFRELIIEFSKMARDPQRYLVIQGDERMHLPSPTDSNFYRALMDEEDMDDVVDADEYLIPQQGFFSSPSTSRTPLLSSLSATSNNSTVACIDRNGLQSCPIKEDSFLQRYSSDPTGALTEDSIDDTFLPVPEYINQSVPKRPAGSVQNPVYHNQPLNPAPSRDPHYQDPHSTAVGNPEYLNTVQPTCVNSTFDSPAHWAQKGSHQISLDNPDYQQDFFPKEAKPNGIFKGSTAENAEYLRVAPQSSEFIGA
T19 sequence (P07333 20-972): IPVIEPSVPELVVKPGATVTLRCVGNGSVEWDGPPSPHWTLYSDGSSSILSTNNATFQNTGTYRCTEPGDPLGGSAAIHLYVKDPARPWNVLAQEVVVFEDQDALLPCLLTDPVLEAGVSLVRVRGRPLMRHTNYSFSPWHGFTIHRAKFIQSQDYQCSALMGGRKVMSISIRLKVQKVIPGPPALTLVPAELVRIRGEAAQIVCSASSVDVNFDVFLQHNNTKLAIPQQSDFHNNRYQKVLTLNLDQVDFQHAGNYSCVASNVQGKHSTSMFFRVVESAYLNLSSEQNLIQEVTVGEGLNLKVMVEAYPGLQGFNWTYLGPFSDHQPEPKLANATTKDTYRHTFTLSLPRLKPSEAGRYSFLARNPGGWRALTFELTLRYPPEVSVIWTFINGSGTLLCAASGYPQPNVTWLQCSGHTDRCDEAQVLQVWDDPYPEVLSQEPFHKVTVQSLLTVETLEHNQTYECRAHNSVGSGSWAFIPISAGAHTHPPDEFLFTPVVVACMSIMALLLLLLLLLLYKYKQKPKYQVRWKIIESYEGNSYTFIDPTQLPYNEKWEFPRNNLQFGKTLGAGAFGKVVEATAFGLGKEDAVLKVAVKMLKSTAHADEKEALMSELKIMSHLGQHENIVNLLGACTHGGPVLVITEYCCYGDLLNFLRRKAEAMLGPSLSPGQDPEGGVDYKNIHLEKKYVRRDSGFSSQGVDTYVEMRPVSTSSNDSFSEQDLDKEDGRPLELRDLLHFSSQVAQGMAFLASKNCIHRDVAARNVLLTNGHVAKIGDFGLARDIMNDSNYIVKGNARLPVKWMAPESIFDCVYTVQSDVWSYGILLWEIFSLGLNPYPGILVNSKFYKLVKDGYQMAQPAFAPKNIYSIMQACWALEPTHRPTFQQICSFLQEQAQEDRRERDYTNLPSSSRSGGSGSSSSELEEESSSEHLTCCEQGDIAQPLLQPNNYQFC
T10 sequence (Q8N568 whole entry): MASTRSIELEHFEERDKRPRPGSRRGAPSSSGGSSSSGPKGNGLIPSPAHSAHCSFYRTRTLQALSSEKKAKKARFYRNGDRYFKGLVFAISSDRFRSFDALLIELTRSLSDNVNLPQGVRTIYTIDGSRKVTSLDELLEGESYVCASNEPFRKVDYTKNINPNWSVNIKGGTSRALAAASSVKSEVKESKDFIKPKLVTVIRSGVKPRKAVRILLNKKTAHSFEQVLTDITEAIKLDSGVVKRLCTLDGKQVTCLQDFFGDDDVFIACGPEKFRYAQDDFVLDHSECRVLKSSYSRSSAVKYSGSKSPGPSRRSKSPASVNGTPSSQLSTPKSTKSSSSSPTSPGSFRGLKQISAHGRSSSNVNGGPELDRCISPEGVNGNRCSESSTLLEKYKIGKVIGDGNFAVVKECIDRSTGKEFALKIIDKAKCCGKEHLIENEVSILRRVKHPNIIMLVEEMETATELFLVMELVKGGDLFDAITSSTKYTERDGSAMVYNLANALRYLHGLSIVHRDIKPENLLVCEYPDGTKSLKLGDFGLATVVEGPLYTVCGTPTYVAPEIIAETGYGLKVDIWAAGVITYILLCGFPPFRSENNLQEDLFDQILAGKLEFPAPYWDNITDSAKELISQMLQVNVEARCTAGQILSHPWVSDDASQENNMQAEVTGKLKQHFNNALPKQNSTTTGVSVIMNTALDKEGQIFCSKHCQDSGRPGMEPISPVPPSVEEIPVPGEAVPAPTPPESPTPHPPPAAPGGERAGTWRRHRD
T8 sequence (O15075 whole entry): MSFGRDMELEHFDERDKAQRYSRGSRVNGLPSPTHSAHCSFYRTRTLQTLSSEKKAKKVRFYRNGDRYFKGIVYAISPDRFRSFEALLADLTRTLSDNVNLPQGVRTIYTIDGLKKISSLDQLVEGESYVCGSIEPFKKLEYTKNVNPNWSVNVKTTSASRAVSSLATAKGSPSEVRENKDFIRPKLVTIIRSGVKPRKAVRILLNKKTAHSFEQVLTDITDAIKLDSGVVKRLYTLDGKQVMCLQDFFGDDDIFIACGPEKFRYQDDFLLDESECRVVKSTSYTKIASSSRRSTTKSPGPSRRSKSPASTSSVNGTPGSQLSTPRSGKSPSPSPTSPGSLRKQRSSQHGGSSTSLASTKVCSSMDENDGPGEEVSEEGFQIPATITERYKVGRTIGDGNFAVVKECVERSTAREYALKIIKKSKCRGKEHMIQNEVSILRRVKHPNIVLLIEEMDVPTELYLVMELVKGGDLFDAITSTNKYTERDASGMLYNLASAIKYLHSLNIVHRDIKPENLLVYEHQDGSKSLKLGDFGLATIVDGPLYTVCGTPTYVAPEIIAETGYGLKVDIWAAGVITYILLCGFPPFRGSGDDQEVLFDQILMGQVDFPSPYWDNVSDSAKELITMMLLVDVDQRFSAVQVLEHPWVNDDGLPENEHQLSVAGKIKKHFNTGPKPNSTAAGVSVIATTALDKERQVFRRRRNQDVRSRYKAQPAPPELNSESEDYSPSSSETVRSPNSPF

In the case of `Nc1ccc2c(c1)NC(=O)/C(=C/c1ccc(Cl)cc1)O2` [NGN-006, (2Z)-6-amino-2-[(4-chlorophenyl)methylidene]-3,4-dihydro-2H-1,4-benzoxazin-3-one], the remaining binding at 1 µM [1] is reported as 88%, the remaining binding at 1 µM [2] is reported as 100% and the remaining binding at 1 µM [3] is reported as 100%. It also gave a remaining binding at 1 µM [4] of 84%, a remaining binding at 1 µM [5] of 100% and a remaining binding at 1 µM [6] of 100%. The remaining binding at 1 µM [7] was 100%, the remaining binding at 1 µM [8] was 100% and the “neuroprotection (viability)” value [9] was “protective”. The “kinase inhibition (in words)” value [10] was “does not inhibit”, the “kinase inhibition (in words)” value [11] was “does not inhibit” and the “neuroprotection (viability)” value [12] was “protective”. For the same compound, the “kinase inhibition (in words)” value [13] was “not inhibited”, the remaining binding at 1 µM [14] was 100% and the remaining binding at 1 µM [15] was 98%. For the same compound, the remaining binding at 1 µM [16] was 92%, the remaining binding at 1 µM [17] was 92% and the remaining binding at 1 µM [18] was 100%. For the same compound, the remaining binding at 1 µM [19] was 100%, the remaining binding at 1 µM [20] was 98% and the remaining binding at 1 µM [21] was 100%. The remaining binding at 1 µM [22] was 100%, the remaining binding at 1 µM [23] was 87% and the “kinases inhibited substantially of the 451 kinases tested” value [24] was “only DRAK1/STK17a”. The remaining binding at 1 µM [25] was 100% and the remaining binding at 1 µM [26] was 86%.
